From patent US20110034498A1, “DOSING REGIMENS FOR THE TREATMENT OF CANCER” (priority 2006, published 2011)

Legend:
Assay type in all cases: in vivo
PC-3 cells = assay: mouse PC-3 prostate xenograft model, subcutaneous tumor burden; conditions: for End Volume / Start Volume: 10 mg/kg/day (table); for End Volume: after 25 days of treatment; for Start Volume: tumor volume at start
Protocol: A study was performed in mouse PC-3 prostate xenograft models to assess the ability of the methods of the present invention to reduce subcutaneous tumor burden. In the study male athymic nude (Nu/Nu) mice were implanted with PC-3 cells (1×10^7 cells) into the flank of the left leg. When the average tumor size reached 200 mm^3 animals were randomly assigned to treatment groups (N=12/group). Mice were implanted with Alzet mini pumps containing either the HCl salt of compound 1 or vehicle (30% HPBCD in WFI). The mini pumps were surgically implanted subcutaneously on the flank of the right leg, contralateral to the site of the tumor implant. The pumps were replaced with new pumps every 6th day of the study. In the study, mice received either vehicle or the test compound at 10.6 mg/kg/day. Tumor volumes for each group were measured at regular intervals during treatment. The animals were sacrificed after 25 days of treatment and tumor volumes were compared.
A study was performed in mouse PC-3 prostate xenograft models to assess the ability of the methods of the present invention to reduce subcutaneous tumor burden. Male athymic nude (Nu/Nu) mice were implanted with PC-3 cells (1×10^7 cells) into the flank of the left leg. When the average tumor size reached 200 mm^3, animals were randomly assigned to treatment groups (N=12/group). […] The mini pumps were surgically implanted subcutaneously on the flank of the right leg, contralateral to the site of the tumor implant. The pumps were replaced with new pumps every 6th day of the study. Mice received either vehicle or the test compound at 10.6 mg/kg/day. Tumor volumes for each group were measured at regular intervals during treatment. The animals were sacrificed after 25 days of treatment, and tumor volumes were compared.

SKOV-3 cells = assay: mouse SKOV-3 xenograft model, subcutaneous tumor burden; conditions: for End Volume / Start Volume: nude mice, HCl salt via s.c. Alzet mini pump; for End Volume: treatment lasted 74 days; for Start Volume: tumor volume at start
Protocol: When the average tumor size reached 50 mm^3, animals were randomly assigned to treatment groups. […] Tumor volumes of the two groups were measured at regular intervals during treatment, which lasted 74 days.

PAN-02 cells = assay: mouse PAN-02 xenograft model, subcutaneous tumor burden
Source text: The PAN-02 cells were maintained by in vivo passaging in C57/1316 mice. Male C57/B16 mice were implanted with PAN-02 cells (8 mm^3 tumor fragments) into the inguinal area. Each mouse was implanted with an 8 mm^3 tumor PAN-02 tumor fragment collected from a donor mouse. The tumor fragment was loaded onto a 16 G trocar and implanted by piercing through the skin in the right inguinal area. The animals were randomly assigned to treatment groups (N=14/group). […] Mice received either vehicle or the test compound at 20 mg/kg/day. Tumor volumes of the two groups were measured at regular intervals during treatment, which lasted 32 days.

[1] = PC-3 xenograft, male athymic nude mice, HCl salt via s.c. Alzet mini pump, continuous
[2] = PC-3 xenograft (Example 5), nude mice, HCl salt of cyclopamine via s.c. Alzet mini pump

Structure (SMILES)	End Volume (PC-3 cells; [1])	Start Volume (PC-3 cells; [1])	growth of the tumors (PC-3 cells; PC-3 xenograft, continuous doses 10.6 mg/kg/day, 25 days, versus vehicle)	growth of the tumors (SKOV-3 cells; continuous doses 10.6 or 20 mg/kg/day, 74 days, versus vehicle)	End Volume (SKOV-3 cells; 10.6 mg/kg/day)	Start Volume (SKOV-3 cells; 10.6 mg/kg/day)	End Volume (SKOV-3 cells; 20 mg/kg/day)	Start Volume (SKOV-3 cells; 20 mg/kg/day)	growth of the tumors (PAN-02 cells; PAN-02 model, continuous doses 20 mg/kg/day, 32 days, versus vehicle)	End Volume (PAN-02 cells; PAN-02 tumor fragments in male C57/B16 mice, HCl salt via s.c. Alzet mini pump, 20 mg/kg/day, treatment lasted 32 days)	Start Volume (PAN-02 cells; PAN-02 tumor fragments in male C57/B16 mice, HCl salt via s.c. Alzet mini pump, 20 mg/kg/day, tumor volume at start)	End Volume (PC-3 cells; [2])	Start Volume (PC-3 cells; [2])
CC1=C2C[C@H]3[C@@H](CCC4=CC(=O)CC[C@@]43C)[C@@H]2CC[C@@]2(C1)O[C@@H]1C[C@H](C)CN[C@H]1[C@H]2C [Compound 1]	444 ± 101 mm^3	188 ± 17 mm^3	significantly reduced	significantly reduced	186 ± 57 mm^3	57 ± 5 mm^3	52 ± 11 mm^3	31 ± 4 mm^3	significantly reduced	481 ± 64 mm^3	82 ± 8 mm^3		
CC1=C2C[C@H]3[C@@H](CC=C4C[C@@H](O)CC[C@@]43C)[C@@H]2CC[C@]12O[C@@H]1C[C@H](C)CN[C@H]1[C@H]2C [Cyclopamine, reference compound]												448 ± 152 mm^3	170 ± 29 mm^3
